These results are taken from patent US20240381872A1, “SUBSTITUTED 2,3-DIHYDRO[1,3]THIAZOLO[4,5-B]PYRIDINES, SALTS THEREOF AND THEIR USE AS HERBICIDALLY ACTIVE SUBSTANCES” (BAYER AKTIENGESELLSCHAFT, priority 2021, published 2024).

What all share (type): in vivo
The subject of test [1] is Kochia scoparia (KCHSC). The test can be described thus: Herbicidal pre-emergence action, section A (Table A4). The note with it: application rate 320 g/ha; visual grading after ca. 3 weeks vs untreated controls. A digest of the protocol:
(§1)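 Percent herbicidal effect, visually graded about 3 weeks post-treatment against untreated pots, reflects pre-emergence application of WP or EC formulations to the soil surface over seeds sown in sandy loam, using 0.5% additive and 600 l of water per hectare.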

For test [2], the system named is Matricaria inodora (MATIN). The test is described as follows: Herbicidal post-emergence action, section B (Table B6). The note with it: application rate 1280 g/ha; visual rating about 3 weeks after treatment vs untreated controls. A digest of the protocol:
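Percent effect, judged by eye against untreated controls (0% = like control, 100% = plants dead), was recorded about 3 weeks after a foliar spray. The spray, at 600 liters per hectare with 0.5% additive, was applied to one-leaf-stage plants grown in sandy loam.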

For test [3], the system named is Alopecurus myosuroides (ALOMY). The test is described as follows: Herbicidal post-emergence action, section B (Table B2). The note with it: application rate 1280 g/ha; rated visually about 3 weeks after treatment vs untreated controls; 100% = plants have died, 0% = like control plants. The procedure:
Seeds of mono- and dicotyledonous weed plants were placed in plastic pots in sandy loam soil (doubly sown with in each case one species of mono- or dicotyledonous weed plants per pot), covered with soil and cultivated in a greenhouse under controlled growth conditions. 2 to 3 weeks after sowing, the test plants were treated at the one-leaf stage. The compounds of the invention, formulated in the form of wettable powders (WP) or as emulsion concentrates (EC), were applied onto the green parts of the plants as aqueous suspension or emulsion with addition of 0.5% additive at a water application rate of 600 liters per hectare (converted). After the test plants had been kept in the greenhouse under optimum growth conditions for about 3 weeks, the activity of the preparations was rated visually in comparison to untreated controls. For example, 100% activity=the plants have died, 0% activity=like control plants.

Test [4] concerns Amaranthus retroflexus (AMARE). The test can be described thus: Herbicidal pre-emergence action, section A (Table A11). The settings on record: application rate 320 g/ha. A digest of the protocol: as §1
The test system of test [5] is Kochia scoparia (KCHSC). The test can be described thus: Herbicidal post-emergence action, section E (Table E11). The note with it: application rate 320 g/ha, visual assessment ca. 3 weeks after spraying. The procedure, abridged:
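Greenhouse-grown plants in sandy loam were sprayed post-emergence at the single-leaf stage, 2 to 3 weeks after sowing. Compounds were applied as WP or EC in water with 0.5% additive at 600 l water/ha. After ca. 3 weeks, damage was scored visually versus untreated controls (0% = as control, 100% = dead).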

The subject of another test is Viola tricolor (VIOTR). The test is described as follows: Herbicidal pre-emergence action, section C (Table C9). The settings on record: application rate 320 g/ha; visual grading after ca. 3 weeks. The source says:
(§2) Seeds of mono- and dicotyledonous weed plants and crop plants were sown, in plastic or organic planting pots, in sandy loam and covered with soil. The compounds according to the invention, formulated in the form of wettable powders (WP) or as emulsifiable concentrates (EC), were applied to the surface of the covering soil as aqueous suspension or emulsion, with the addition of 0.5% of an additive, at an application rate of 600 l of water/ha (converted). Following treatment, the pots were placed in a greenhouse and kept under optimum growth conditions for the test plants. The visual grading of the damage to the test plants was carried out after ca. 3 weeks in comparison to untreated controls (herbicidal effect in percent (%): 100% effect=plants have died off, 0% effect=as control plants).

Test [6] concerns Abutilon theophrasti (ABUTH). The test is described as follows: Herbicidal pre-emergence action, section C (Table C1). The settings on record: application rate 320 g/ha; visual grading after ca. 3 weeks vs untreated controls.
From the text: as §2

The subject of test [7] is Setaria viridis (SETVI). The test can be described thus: Herbicidal post-emergence action, section E (Table E8). The settings on record: application rate 320 g/ha, visual assessment ca. 3 weeks after spraying. An excerpt:
Seeds of mono- and dicotyledonous weed plants and crop plants were sown, in plastic or organic planting pots, in sandy loam, covered with soil and grown in a greenhouse under controlled growth conditions. 2 to 3 weeks after sowing, the test plants were sprayed in the single-leaf stage. The compounds according to the invention, formulated in form of wettable powders (WP) or as emulsifiable concentrates (EC), were sprayed onto the green plant parts as aqueous suspension or emulsion, with the addition of 0.5% of an additive, at an application rate of 600 l of water/ha (converted). The test plants were placed in the greenhouse for ca. 3 weeks under optimum growth conditions, and then the effect of the preparations was assessed visually in comparison with untreated controls (herbicidal effect in percent (%): 100% effect=plants have died off, 0% effect=as control plants).

Test [8] relates to Kochia scoparia (KCHSC). The test can be described thus: Herbicidal pre-emergence action, section C (Table C13). The settings on record: application rate 320 g/ha; visual grading after ca. 3 weeks. The procedure, abridged:
(§3)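 Weed and crop seeds sown in sandy loam, covered with soil, then WP or EC formulations sprayed onto the soil surface as aqueous suspension/emulsion with 0.5% additive at 600 l water/ha. Kept in greenhouse under optimum conditions; damage graded visually after ca. 3 weeks versus untreated controls (0% = as control, 100% = plants dead).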

Test [9] has as its system Setaria viridis (SETVI). The test can be described thus: Herbicidal pre-emergence action, section C (Table C8). The note with it: application rate 80 g/ha; visual grading after ca. 3 weeks. A digest of the protocol: as §3

On to `Cc1cc2c(nc1-c1ccccc1F)N(C(=O)C13CCCC1C(Cl)=NO3)CS2` (stereo not shown) [Example I-104], for which the “pre-emergence activity against KCHSC in %” value in the test with Kochia scoparia (KCHSC) [1] and in the test with Kochia scoparia (KCHSC) [8] was 90% in each case. The “post-emergence activity against MATIN in %” value in test [2] amounted to 90%. Further, the “post-emergence activity against ALOMY” value in test [3] is 90%. Also, in test [4], the “pre-emergence activity against AMARE in %” value stood at 90%. Moreover, the “post-emergence activity against KCHSC in %” value in the test on Kochia scoparia (KCHSC) [5] was 90%. In addition, in the test on Viola tricolor (VIOTR), the “pre-emergence activity against VIOTR in %” value is recorded as 80%. In addition, in test [6], the “pre-emergence activity against ABUTH in %” value is 80%. The “post-emergence activity against SETVI in %” value with Setaria viridis (SETVI) [7] worked out at 90%. Also, the “pre-emergence activity against SETVI in %” value in the test on Setaria viridis (SETVI) [9] turned out to be 100%.
